Data: patent publication US20240199634A1, “CYCLIC COMPOUNDS AND METHODS OF USING SAME” (SCHRÖDINGER, INC., priority 2021, published 2024)

target: T1, Full length human CDC7 protein co-expressed with DBF4 (Homo sapiens, UniProt O00311); test: CDC7 Kinase Biochemical Assay (ADP-Glo, PDKtide substrate); conditions: 0.1 nM CDC7/DBF4, 1 μM ATP, 10 μM PDKtide, 4 h reaction
T1 construct: Full length human CDC7 protein co-expressed with DBF4; purchased SignalChem (China)
Experimental: CDC7 Kinase Biochemical Assay PROTOCOL:
Full length human CDC7 protein co-expressed with DBF4 was purchased from SignalChem (China). CDC7 kinase activity was determined with PDKtide (SignalChem) as a substrate and by measuring ADP production using the ADP-Glo™ Kinase Assay kit (Promega) following the manufacturer's instructions. The kinase reaction was performed using the following conditions: Buffer: 40 mM Tris pH 7.5, 20 mM MgCl2, 0.1 mg/mL BSA and 50 μM DTT. Final reaction mix contained 0.1 nM CDC7/DBF4, 1 μM ATP and 10 μM PDKtide. The kinase reaction time was 4 h. The ADP-Glo signal was measured using an EnVision plate reader (PerkinELmer).
Percent inhibition of CDC7 kinase activity was calculated based on the following formula:
[formula] • SSample: the signal of compounds • SHigh Ctrl: the signal of high control (DMSO) • SLow Ctrl: the signal of low control (positive control CDC7 inhibitor)

T1 sequence (O00311 whole entry): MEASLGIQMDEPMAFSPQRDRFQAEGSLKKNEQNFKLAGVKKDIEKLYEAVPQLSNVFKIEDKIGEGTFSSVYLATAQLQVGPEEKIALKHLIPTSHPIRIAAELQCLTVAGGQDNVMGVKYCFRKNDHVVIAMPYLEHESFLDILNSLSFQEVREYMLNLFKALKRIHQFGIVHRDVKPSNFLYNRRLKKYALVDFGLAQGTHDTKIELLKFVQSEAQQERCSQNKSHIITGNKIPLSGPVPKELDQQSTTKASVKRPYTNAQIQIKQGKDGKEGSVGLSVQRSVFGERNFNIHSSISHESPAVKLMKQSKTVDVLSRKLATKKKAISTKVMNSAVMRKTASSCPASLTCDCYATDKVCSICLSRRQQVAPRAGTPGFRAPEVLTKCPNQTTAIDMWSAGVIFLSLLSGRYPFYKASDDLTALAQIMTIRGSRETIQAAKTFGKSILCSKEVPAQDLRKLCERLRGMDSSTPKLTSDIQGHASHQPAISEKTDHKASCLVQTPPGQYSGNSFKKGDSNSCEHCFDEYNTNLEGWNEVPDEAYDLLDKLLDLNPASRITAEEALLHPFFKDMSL
T1 sequence (Q9UBU7 whole entry partner): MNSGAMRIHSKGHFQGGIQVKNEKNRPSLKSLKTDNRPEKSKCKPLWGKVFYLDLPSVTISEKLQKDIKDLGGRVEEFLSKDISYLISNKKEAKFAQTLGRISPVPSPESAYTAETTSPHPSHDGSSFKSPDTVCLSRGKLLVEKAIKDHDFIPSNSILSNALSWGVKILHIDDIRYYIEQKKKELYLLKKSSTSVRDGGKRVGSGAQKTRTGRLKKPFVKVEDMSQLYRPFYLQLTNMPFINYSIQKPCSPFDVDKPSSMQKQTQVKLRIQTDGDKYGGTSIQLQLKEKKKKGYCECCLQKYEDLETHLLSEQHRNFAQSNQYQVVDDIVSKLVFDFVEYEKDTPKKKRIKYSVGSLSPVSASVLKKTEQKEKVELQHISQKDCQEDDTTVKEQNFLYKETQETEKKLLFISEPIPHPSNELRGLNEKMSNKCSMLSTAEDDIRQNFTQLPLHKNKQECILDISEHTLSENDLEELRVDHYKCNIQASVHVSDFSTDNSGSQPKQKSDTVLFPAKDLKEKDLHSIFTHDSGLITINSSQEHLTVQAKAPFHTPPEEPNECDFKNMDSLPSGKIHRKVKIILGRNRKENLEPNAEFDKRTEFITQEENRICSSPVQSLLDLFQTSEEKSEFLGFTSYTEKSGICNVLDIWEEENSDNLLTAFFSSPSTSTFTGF

Row | Structure (SMILES) | IC50
1 | CC1(CO)OCCc2c1[nH]c(=O)c1sc(-c3cn[nH]c3)cc21 (single isomer, unassigned) [Compound 34] | > 10 nM
2 | CC(C)(C)[C@]1(O)COCc2c1[nH]c(=O)c1sc(-c3ccncc3)cc21 (single isomer, unassigned) [Compound 23] | > 10 nM
3 | CC(C)C1(O)COCc2c1[nH]c(=O)c1sc(-c3ccns3)cc21 (single isomer, unassigned) [Compound 47] | > 10 nM
4 | C[C@]1(CO)CC(F)(F)Cc2c1[nH]c(=O)c1sc(-c3cn[nH]c3)cc21 (single isomer, unassigned) [Compound 14] | 1 to 10 nM
5 | COC1(C)CC(F)(F)Cc2c1[nH]c(=O)c1sc(-c3cn[nH]c3)cc21 (single isomer, unassigned) [Compound 52] | 1 to 10 nM
6 | CCC1(O)COCc2c1[nH]c(=O)c1sc(-c3cn[nH]c3)cc21 (single isomer, unassigned) [Compound 19] | > 10 nM
7 | Cc1n[nH]cc1-c1cc2c3c([nH]c(=O)c2s1)C(O)(C(C)C)COC3 (single isomer, unassigned) [Compound 25] | 1 to 10 nM
8 | COC1(C)CCCc2[nH]c(=O)c3sc(-c4cn[nH]c4)cc3c21 (single isomer, unassigned) [Compound 38] | 1 to 10 nM
9 | CC(C)(C)C1(O)COCc2c1[nH]c(=O)c1sc(-c3c[nH]nc3F)cc21 (single isomer, unassigned) [Compound 65] | > 10 nM
10 | CC1(N2CCCC2)COCc2c1[nH]c(=O)c1sc(-c3cn[nH]c3)cc21 (centres unmarked) [Compound 71, 4-methyl-8-(1H-pyrazol-4-yl)-4-(pyrrolidin-1-yl)-1,3,4,5-tetrahydro-6H-pyrano[4,3-b]thieno[3,2-d]pyridin-6-one] | > 10 nM
11 | CCC(C)C1(O)COCc2c1[nH]c(=O)c1sc(-c3cn[nH]c3)cc21 (single isomer, unassigned) [Compound 75] | > 10 nM
12 | CC(C)(C)C1(O)COCc2c1[nH]c(=O)c1sc(-c3ccncc3F)cc21 (single isomer, unassigned) [Compound 60] | 1 to 10 nM
13 | CCC(C)(C)C1(O)COCc2c1[nH]c(=O)c1sc(-c3cn[nH]c3)cc21 (single isomer, unassigned) [Compound 80] | > 10 nM
14 | O=c1[nH]c2c(c3cc(-c4cn[nH]c4)sc13)CC(F)(F)C[C@H]2N1CCC1 (single isomer, unassigned) [Compound 12] | 1 to 10 nM
15 | CC#CC1(O)COCc2c1[nH]c(=O)c1sc(-c3cn[nH]c3)cc21 (single isomer, unassigned) [Compound 73] | > 10 nM
16 | Cc1cc(-c2cc3c4c([nH]c(=O)c3s2)C(O)(C(C)(C)C)COC4)ccn1 (single isomer, unassigned) [Compound 62] | > 10 nM
17 | CC(C)C1(O)CCCc2c1[nH]c(=O)c1sc(-c3cn[nH]c3)cc21 (single isomer, unassigned) [Compound 88] | 1 to 10 nM

Row | Structure (SMILES) | IC50
18 | CC(C)(C)C1(O)COCc2c1[nH]c(=O)c1sc(-c3ccnnc3)cc21 (single isomer, unassigned) [Compound 68] | > 10 nM
19 | CC(C)(C)C1(O)COCc2c1[nH]c(=O)c1sc(-c3ncncc3Cl)cc21 (single isomer, unassigned) [Compound 64] | 1 to 10 nM
20 | Cn1nccc1-c1cc2c3c([nH]c(=O)c2s1)C(O)(C(C)(C)C)COC3 (single isomer, unassigned) [Compound 90] | > 10 nM
21 | CC(C)(O)C1(C)OCCc2c1[nH]c(=O)c1sc(-c3cn[nH]c3)cc21 (single isomer, unassigned) [Compound 56] | > 10 nM
22 | O=c1[nH]c2c(c3cc(-c4cn[nH]c4)sc13)CCC[C@@H]2N1CCC(F)(F)C1 (single isomer, unassigned) [Compound 6] | > 10 nM
23 | CC#CC1(O)COCc2c1[nH]c(=O)c1sc(-c3cn[nH]c3)cc21 (single isomer, unassigned) [Compound 72] | 1 to 10 nM
24 | O=c1[nH]c2c(c3cc(-c4cn[nH]c4)sc13)CCC[C@@H]2O (single isomer, unassigned) [Compound 3] | 1 to 10 nM
25 | CC(C)C1(O)COCc2c1[nH]c(=O)c1sc(-c3c[nH]nc3F)cc21 (single isomer, unassigned) [Compound 26] | 1 to 10 nM
26 | O=c1[nH]c2c(c3cc(-c4cn[nH]c4)sc13)COCC2(O)C1CCCC1 (single isomer, unassigned) [Compound 79] | 1 to 10 nM
27 | CC(C)(O)C1(C)OCCc2c1[nH]c(=O)c1sc(-c3cn[nH]c3)cc21 (single isomer, unassigned) [Compound 57] | 1 to 10 nM
28 | Cn1nccc1-c1cc2c3c([nH]c(=O)c2s1)C(O)(C(F)(F)F)COC3 (single isomer, unassigned) [Compound 31] | 1 to 10 nM
29 | COCC1(O)CC(F)(F)Cc2c1[nH]c(=O)c1sc(-c3cn[nH]c3)cc21 (single isomer, unassigned) [Compound 48] | > 10 nM
30 | CO[C@@H]1COCc2c1[nH]c(=O)c1sc(-c3cn[nH]c3)cc21 (single isomer, unassigned) [Compound 11] | > 10 nM
31 | O=c1[nH]c2c(c3cc(-c4cn[nH]c4)sc13)CCCC2(O)C(F)F (single isomer, unassigned) [Compound 36] | > 10 nM
32 | CC(C)C1(O)COCc2c1[nH]c(=O)c1sc(-c3cn[nH]c3)cc21 (single isomer, unassigned) [Compound 17] | 1 to 10 nM
33 | CCC1(O)CC(F)(F)Cc2c1[nH]c(=O)c1sc(-c3cn[nH]c3)cc21 (single isomer, unassigned) [Compound 50] | 1 to 10 nM

Continued, values first:

Row | IC50 | Structure (SMILES)
34 | 1 to 10 nM | CN(C)C1(C)COCc2c1[nH]c(=O)c1sc(-c3cn[nH]c3)cc21 (single isomer, unassigned) [Compound 83]
35 | 1 to 10 nM | Cc1n[nH]cc1-c1cc2c3c([nH]c(=O)c2s1)C(O)(C(F)(F)F)COC3 (single isomer, unassigned) [Compound 33]
36 | ≤ 1 nM | CC(F)(F)CC1(O)COCc2c1[nH]c(=O)c1sc(-c3cn[nH]c3)cc21 (centres unmarked) [Compound 86, 4-(2,2-difluoropropyl)-4-hydroxy-8-(1H-pyrazol-4-yl)-1,3,4,5-tetrahydro-6H-pyrano[4,3-b]thieno[3,2-d]pyridin-6-one]
37 | 1 to 10 nM | CN(C)C1(C)COCc2c1[nH]c(=O)c1sc(-c3cn[nH]c3)cc21 (single isomer, unassigned) [Compound 82]
38 | 1 to 10 nM | CC1(O)CC(F)(F)Cc2c1[nH]c(=O)c1sc(-c3cn[nH]c3)cc21 (single isomer, unassigned) [Compound 55]
39 | ≤ 1 nM | O=c1[nH]c2c(c3cc(-c4cn[nH]c4)sc13)CCC[C@H]2O (single isomer, unassigned) [Compound 4]
40 | ≤ 1 nM | O=c1[nH]c2c(c3cc(-c4cn[nH]c4)sc13)COCC2(O)C(F)(F)F (single isomer, unassigned) [Compound 28]
41 | ≤ 1 nM | CC(F)(F)C1(O)COCc2c1[nH]c(=O)c1sc(-c3cn[nH]c3)cc21 (single isomer, unassigned) [Compound 96]
42 | ≤ 1 nM | CC[C@H](C)[C@]1(O)COCc2c1[nH]c(=O)c1sc(-c3cn[nH]c3)cc21 (single isomer, unassigned) [Compound 77]
43 | ≤ 1 nM | COCC1(O)CC(F)(F)Cc2c1[nH]c(=O)c1sc(-c3cn[nH]c3)cc21 (single isomer, unassigned) [Compound 49]
44 | ≤ 1 nM | CC(C)(C)C1(O)COCc2c1[nH]c(=O)c1sc(-c3ncncc3Cl)cc21 (single isomer, unassigned) [Compound 63]
45 | ≤ 1 nM | COC1(C)CCCc2[nH]c(=O)c3sc(-c4cn[nH]c4)cc3c21 (single isomer, unassigned) [Compound 39]
46 | ≤ 1 nM | CCC(C)(C)C1(O)COCc2c1[nH]c(=O)c1sc(-c3cn[nH]c3)cc21 (single isomer, unassigned) [Compound 81]
47 | ≤ 1 nM | CC1(O)CC(F)(F)Cc2c1[nH]c(=O)c1sc(-c3cn[nH]c3)cc21 (single isomer, unassigned) [Compound 54]
48 | ≤ 1 nM | C[C@@]1(CO)CC(F)(F)Cc2c1[nH]c(=O)c1sc(-c3cn[nH]c3)cc21 (single isomer, unassigned) [Compound 15]
49 | ≤ 1 nM | O=c1[nH]c2c(c3c(F)c(-c4cn[nH]c4)sc13)CC(F)(F)CC2 [Compound 2, 1,8,8-trifluoro-2-(1H-pyrazol-4-yl)-5,6,7,9-tetrahydrothieno[2,3-c]quinolin-4-one]
50 | ≤ 1 nM | O=c1[nH]c2c(c3cc(-c4cn[nH]c4)sc13)CCCC2 [Compound 1, 2-(1H-pyrazol-4-yl)-6,7,8,9-tetrahydrothieno[2,3-c]quinolin-4(5H)-one]
51 | ≤ 1 nM | CC[C@@H](C)[C@@]1(O)COCc2c1[nH]c(=O)c1sc(-c3cn[nH]c3)cc21 (single isomer, unassigned) [Compound 76]
52 | ≤ 1 nM | CC(C)(C)C1(O)COCc2c1[nH]c(=O)c1sc(-c3ccnnc3)cc21 (single isomer, unassigned) [Compound 67]
53 | ≤ 1 nM | CO[C@H]1COCc2c1[nH]c(=O)c1sc(-c3cn[nH]c3)cc21 (single isomer, unassigned) [Compound 10]
54 | ≤ 1 nM | Cc1n[nH]cc1-c1cc2c3c([nH]c(=O)c2s1)C(O)(C(C)(C)C)COC3 (single isomer, unassigned) [Compound 92]
55 | ≤ 1 nM | Cc1cc(-c2cc3c4c([nH]c(=O)c3s2)C(O)(C(C)(C)C)COC4)ccn1 (single isomer, unassigned) [Compound 61]
56 | ≤ 1 nM | Cc1n[nH]cc1-c1cc2c3c([nH]c(=O)c2s1)C(O)(C(C)C)COC3 (single isomer, unassigned) [Compound 24]
